Results as given in paper PMC7031696 (Cell chemical biology, 2019).
“Also recorded” adds a separate entry of the source. Like-named read-outs stand apart in the source and are kept apart here.

What was measured:
physchem = details: pH 7.4, aqueous buffer, kinetic from dmso stock
[1] = test system: Plasmodium falciparum 3D7-A10 parasites; assay: Stage specificity assay (8-h exposure of synchronized stages, IC50^8h); type: cell-based; details: for IC50: Plasmodium falciparum
[2] = test system: asynchronous 3D7-A10 parasite cultures; assay: Standard 72-h exposure asexual blood stage susceptibility assay (IC50^72h); type: cell-based, Plasmodium falciparum; details: Plasmodium falciparum, 3D7, 72 h, read-out: Overall (72hr assay) Mean IC50 (IC50^72h)
[3] = test system: 3D7-MR4 trophozoite parasite-infected RBCs; assay: Metabolomic profiling (hydrophilic metabolite changes, UHPLC-MS); type: cell-based, Plasmodium falciparum
[4] = test system: 3D7-MR4 trophozoite parasite-infected RBCs; details: 10 × IC50^72h; ref Allman et al., 2016; cited from earlier work
[5] = 3D7, read-out: Early rings Mean IC50 (IC50^8h), 8-h exposure 0–8 hr, 3D7-A10, survival at 60 h
[6] = 3D7, read-out: Early trophozoites Mean IC50 (IC50^8h), 8-h exposure 16–24 hr, 3D7-A10, survival at 60 h
[7] = 3D7, read-out: Late rings Mean IC50 (IC50^8h), 8-h exposure 8–16 hr, 3D7-A10, survival at 60 h
[8] = 3D7, read-out: Late trophozoites Mean IC50 (IC50^8h), 8-h exposure 24–32 hr, 3D7-A10, survival at 60 h
[9] = 3D7, read-out: Schizonts Mean IC50 (IC50^8h), 8-h exposure 32–40 hr, 3D7-A10, survival at 60 h

Compound: C[C@H]1[C@@H](O)O[C@@H]2O[C@@]3(C)CC[C@H]4[C@H](C)CC[C@@H]1[C@@]24OO3 [Dihydroartemisinin, reference compound]
- solubility at 1.5 h (physchem): ≥ 500 µM
- overall activity profile (stages on which active) ([1]; 8-h exposures): activity on all stages
- IC50 [1, 5]: 1.5 nM
- IC50 [1, 6]: 2.4 nM
- IC50 [1, 7]: 2.4 nM
- IC50 [1, 8]: 3.9 nM
- IC50 [1, 9]: 11.6 nM
- Stage of peak activity (Figure 6) ([1]; period when the parasite was most susceptible (lowest IC50^8h)): ring and trophozoite stages; also recorded: rings and trophozoites
- IC50 [2]: 1 nM

Compound: COCCNCC(O)Cn1c2ccc(Cl)cc2c2cc(Cl)ccc21 (stereo not shown) [MMV019017]
- Log2(fold changes) 3-phosphoglycerate ([3]; metabolite 3-phosphoglycerate, log2 fold change): -0.1375
- Log2(fold changes) 4-Pyridoxic acid ([3]; metabolite 4-Pyridoxic acid, log2 fold change): 0.0658
- Log2(fold changes) 4-aminobutyrate ([3]; metabolite 4-aminobutyrate, log2 fold change): 1.1150
- Log2(fold changes) 4-phosphopantetheine ([3]; metabolite 4-phosphopantetheine, log2 fold change): 0.0000
- Log2(fold changes) 4-phosphopantothenate ([3]; metabolite 4-phosphopantothenate, log2 fold change): -1.0497
- Log2(fold changes) 5-aminopentanoic acid ([3]; metabolite 5-aminopentanoic acid, log2 fold change): 0.0000
- Log2(fold changes) 5-methyl-THF ([3]; metabolite 5-methyl-THF, log2 fold change): 0.0000
- Log2(fold changes) 5-phosphoribosyl-1-pyrophosphate ([3]; metabolite 5-phosphoribosyl-1-pyrophosphate, log2 fold change): -1.1636
- Log2(fold changes) 6-phospho-D-gluconate ([3]; metabolite 6-phospho-D-gluconate, log2 fold change): -0.4356
- Log2(fold change) HVDD ([3]; metabolite HVDD): 0.0000
- Log2(fold change) Hydroxyisocaproic acid ([3]; metabolite Hydroxyisocaproic acid): 0.0000
- Log2(fold change) IDP ([3]; metabolite IDP): 0.0000
- Log2(fold change) IMP ([3]; metabolite IMP): 0.0176
- Log2(fold change) Inositol ([3]; metabolite Inositol): 0.0000
- Log2(fold change) Isopentyl-PP ([3]; metabolite Isopentyl-PP): 0.0000
- Log2(fold change) L-arginino-succinate ([3]; metabolite L-arginino-succinate): 0.0000
- Log2(fold change) LD ([3]; metabolite LD): -2.3846
- Log2(fold change) Myristoyl/tetradecanoyl-CoA ([3]; metabolite Myristoyl/tetradecanoyl-CoA): 0.0000
- Log2(fold change) N-Acetyl-L-alanine ([3]; metabolite N-Acetyl-L-alanine): -0.1766
- Log2(fold change) N-acetyl-L-ornithine ([3]; metabolite N-acetyl-L-ornithine): -1.7936
- Log2(fold change) N-acetyl-glucosamine-1/6-phosphate ([3]; metabolite N-acetyl-glucosamine-1/6-phosphate): -1.5222
- Log2(fold change) N-acetyl-glutamate ([3]; metabolite N-acetyl-glutamate): 0.3951
- Log2(fold change) N-acetyl-glutamine ([3]; metabolite N-acetyl-glutamine): 0.6689
- Log2(fold change) N-carbamoyl-L-aspartate ([3]; metabolite N-carbamoyl-L-aspartate): -1.9472
- Log2(fold change) NAD+ ([3]; metabolite NAD+): -0.1399
- Log2(fold change) NADH ([3]; metabolite NADH): 0.8540
- Log2(fold change) NADP+ ([3]; metabolite NADP+): 0.2168
- Log2(fold change) NADPH ([3]; metabolite NADPH): 0.4083
- Log2(fold change) O-acetyl-L-serine ([3]; metabolite O-acetyl-L-serine): 0.0000
- Log2(fold change) Octoluse 8/1P ([3]; metabolite Octoluse 8/1P): -0.2135
- Log2(fold change) Octoluse Bisphosphate ([3]; metabolite Octoluse Bisphosphate): -5.4193
- Log2(fold change) PD ([3]; metabolite PD): -1.1341
- Log2(fold change) PE ([3]; metabolite PE): 0.0923
- Log2(fold change) PEE ([3]; metabolite PEE): 0.2942
- Log2(fold change) PEEK ([3]; metabolite PEEK): -0.4238
- Log2(fold change) PVNF ([3]; metabolite PVNF): -4.6843
- Log2(fold change) Pyroglutamic acid ([3]; metabolite Pyroglutamic acid): 0.4950
- Log2(fold change) Pyrophosphate ([3]; metabolite Pyrophosphate): -2.5918
- Log2(fold change) Ribose-5-phosphate ([3]; metabolite Ribose-5-phosphate): 0.0000
- Log2(fold change) S-adenosyl-L-homocysteine ([3]; metabolite S-adenosyl-L-homocysteine): -0.4383
- Log2(fold change) S-adenosyl-L-methioninamine ([3]; metabolite S-adenosyl-L-methioninamine): 0.0000
- Log2(fold change) S-adenosyl-L-methionine ([3]; metabolite S-adenosyl-L-methionine): 0.0000
- Log2(fold change) S-methyl-5'-thioadenosine ([3]; metabolite S-methyl-5'-thioadenosine): 0.0000
- Log2(fold change) SD ([3]; metabolite SD): -1.6540
- Log2(fold change) SDL ([3]; metabolite SDL): 0.0000
- Log2(fold change) SID ([3]; metabolite SID): 0.0000
- Log2(fold change) Sedoheptulose bisphosphate ([3]; metabolite Sedoheptulose bisphosphate): -1.7256
- Log2(fold change) Thiamine pyrophosphate ([3]; metabolite Thiamine pyrophosphate): 0.0000
- Log2(fold changes) UDP-D-glucose ([3]; metabolite UDP-D-glucose, log2 fold change): 0.0449
- Log2(fold changes) UDP-D-glucuronate ([3]; metabolite UDP-D-glucuronate, log2 fold change): -0.4277
- Log2(fold changes) UDP-N-acetyl-glucosamine ([3]; metabolite UDP-N-acetyl-glucosamine, log2 fold change): -0.2402
- Log2(fold changes) UDP ([3]; metabolite UDP, log2 fold change): -1.4536
- Log2(fold changes) UMP ([3]; metabolite UMP, log2 fold change): -0.1145
- Log2(fold changes) UTP ([3]; metabolite UTP, log2 fold change): -1.8511
- Log2(fold change) hydroxyphenylpyruvate ([3]; metabolite hydroxyphenylpyruvate): 0.0000
- Log2(fold change) hydroxyproline/Aminolevulinate ([3]; metabolite hydroxyproline/Aminolevulinate): 0.0000
- Log2(fold change) hypoxanthine ([3]; metabolite hypoxanthine): 1.0399
- Log2(fold change) indole ([3]; metabolite indole): 0.2468
- Log2(fold change) inosine ([3]; metabolite inosine): 0.3793
- Log2(fold change) isoleucine ([3]; metabolite isoleucine): 0.0000
- Log2(fold change) lactate ([3]; metabolite lactate): -0.6725
- Log2(fold change) leucine ([3]; metabolite leucine): 0.0000
- Log2(fold change) lysine ([3]; metabolite lysine): 0.0000
- Log2(fold change) malate ([3]; metabolite malate): 0.0811
- Log2(fold change) maleic acid ([3]; metabolite maleic acid): 0.0000
- Log2(fold change) methionine ([3]; metabolite methionine): 0.0000
- Log2(fold change) myo-inositol ([3]; metabolite myo-inositol): -2.8253
- Log2(fold change) nicotinamide mononucleotide ([3]; metabolite nicotinamide mononucleotide): 0.0000
- Log2(fold change) nicotinate ([3]; metabolite nicotinate): 1.9078
- Log2(fold change) ornithine ([3]; metabolite ornithine): 0.0801
- Log2(fold change) orotate ([3]; metabolite orotate): 1.9702
- Log2(fold change) orotidine-5'-phosphate ([3]; metabolite orotidine-5'-phosphate): 0.0000
- Log2(fold change) oxaloacetate ([3]; metabolite oxaloacetate): 0.0000
- Log2(fold change) p-aminobenzoate ([3]; metabolite p-aminobenzoate): 0.0000
- Log2(fold change) p-hydroxybenzoate ([3]; metabolite p-hydroxybenzoate): 0.7031
- Log2(fold change) pantothenate ([3]; metabolite pantothenate): 0.0000
- Log2(fold change) phenylalanine ([3]; metabolite phenylalanine): 0.0000
- Log2(fold change) phenylpyruvate ([3]; metabolite phenylpyruvate): 1.2139
- Log2(fold change) phosphoenolpyruvate ([3]; metabolite phosphoenolpyruvate): 0.7560
- Log2(fold change) prephenate ([3]; metabolite prephenate): 0.0000
- Log2(fold change) proline ([3]; metabolite proline): 0.0000
- Log2(fold change) pyridoxine ([3]; metabolite pyridoxine): 0.0000
- Log2(fold change) pyruvate ([3]; metabolite pyruvate): -0.9980
- Log2(fold change) riboflavin ([3]; metabolite riboflavin): 0.0000
- Log2(fold change) ribose ([3]; metabolite ribose): 0.0000
- Log2(fold change) ribose-phosphate ([3]; metabolite ribose-phosphate): -0.9470
- Log2(fold change) ribulose-5-phosphate ([3]; metabolite ribulose-5-phosphate): 0.0000
- Log2(fold change) serine ([3]; metabolite serine): 0.0000
- Log2(fold change) sn-glycerol-3-phosphate ([3]; metabolite sn-glycerol-3-phosphate): 0.0194
- Log2(fold change) succinate/Methylmalonic acid ([3]; metabolite succinate/Methylmalonic acid): 0.4365
- Log2(fold change) succinyl-CoA/methylmalonyl-CoA ([3]; metabolite succinyl-CoA/methylmalonyl-CoA): 0.0000
- Log2(fold change) taurine ([3]; metabolite taurine): 0.0000
- Log2(fold change) thiamine ([3]; metabolite thiamine): 0.0000
- Log2(fold change) threonine/homoserine ([3]; metabolite threonine/homoserine): 0.0000
- Log2(fold change) thymidine ([3]; metabolite thymidine): -1.7681
- Log2(fold changes) thymine ([3]; metabolite thymine, log2 fold change): -1.7003
- Log2(fold changes) trehalose-6-Phosphate ([3]; metabolite trehalose-6-Phosphate, log2 fold change): 0.0000
- Log2(fold changes) tryptophan ([3]; metabolite tryptophan, log2 fold change): 0.0000
- Log2(fold changes) tyrosine ([3]; metabolite tyrosine, log2 fold change): 0.0000
- Log2(fold changes) uridine ([3]; metabolite uridine, log2 fold change): -0.5758
- levels of cAMP [4]: decreased
- levels of the deoxyribonucleotides dAMP and dTMP [4]: increased
- nucleoside di- and tri-phosphate levels (GDP, UDP, GTP, dATP, dGTP/ATP, dUTP) [4]: decreased
- peptide levels (hemoglobin catabolism signature) [4]: decreased peptide levels
- Ratio lowest IC50 8hr/IC50 72hr ([1]; 3D7-A10): 4.4
- IC50 ([1]; 3D7, 8 h, read-out: IC50^8h values at all tested stages, 8-h exposures, all asexual blood stages): > 1000 nM
- IC50 [1, 5]: 8420 nM
- IC50 [1, 6]: 1340 nM
- IC50 [1, 7]: 8660 nM
- IC50 [1, 8]: 1710 nM
- IC50 [1, 9]: 3060 nM
- IC50 [2]: 306 nM
